For twelve compounds, TGI and GI50 results are on record in PubChem BioAssay (NCI).

Test systems include SK-MEL-5 melanoma; BT-549 breast; A549 NSCLC; OVCAR-8 ovarian; SF-539 CNS; SNB-19 CNS; PC-3 prostate; HCT-15 colon.
Holding throughout (assay): DTP human tumour cell line panel, 48 h

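Compound exposure: 48 hours, 5 concentrations, 96-well plates. GI50 = concentration required for 50% inhibition of growth. TGI: concentration producing complete growth inhibition.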 Where only a bound is given, the exact number is not on record here.

One may read the TGI as the concentration at which net growth stops. A low value points to greater sensitivity of the cells. For `Br[Se]c1ccccn1`, the TGI in the test with SK-MEL-5 melanoma came out at 28.9 µM; with BT-549 breast, 32.9 µM; with A549 NSCLC it was 44.3 µM; in the test with OVCAR-8 ovarian, 36 µM; in the test with SF-539 CNS, 30 µM; in the test with SNB-19 CNS it was 24.8 µM. Also, the TGI in the test with PC-3 prostate turned out to be 30 µM; with HCT-15 colon, 38.4 µM.

Turning to `O=C1CSC(=S)N1/N=C/c1ccc(Cl)c([N+](=O)[O-])c1`, the TGI was more than 100 µM with SK-MEL-5 melanoma; 37.9 µM in the test with BT-549 breast; more than 100 µM with A549 NSCLC; 92.2 µM with OVCAR-8 ovarian; more than 100 µM in the test with SF-539 CNS; 60.8 µM with SNB-19 CNS. In addition, the total growth inhibition concentration (TGI) in the test with PC-3 prostate came out at 65.6 µM; in the test on HCT-15 colon it was 42.1 µM.

A word on the GI50: it is the concentration at which growth is held to half of that of the control. For `CC1(C)[C@@H](NOCCCN)CC[C@]2(C)[C@H]3C(=O)C=C4[C@@H]5C[C@](C)(C(=O)O)CC[C@]5(C)CC[C@@]4(C)[C@]3(C)CC[C@@H]12`, the GI50 with SK-MEL-5 melanoma is 3.17 µM; with BT-549 breast it was 9.44 µM; in the test on A549 NSCLC it was 6.13 µM; with OVCAR-8 ovarian it was 6.18 µM; in the test on SF-539 CNS it was 11.9 µM; in the test with SNB-19 CNS, 13.5 µM. In addition, the values for the GI50 in the test on PC-3 prostate and with HCT-15 colon were 3.66 µM and 3.6 µM, respectively. In addition, the TGI worked out at 10.9 µM in the test on SK-MEL-5 melanoma; 47.8 µM with BT-549 breast; 33.6 µM in the test with A549 NSCLC; 28.7 µM in the test with OVCAR-8 ovarian; 24.2 µM in the test on SF-539 CNS; 43.7 µM with SNB-19 CNS. Besides, the TGI with PC-3 prostate was 19 µM; in the test with HCT-15 colon, more than 100 µM.

Regarding `CC(=O)[O-].CC(=O)[O-].O=C(N/N=C/c1cc(Cl)cc(Cl)c1O)c1ccncc1.[Cu+2]`, the concentration for total growth inhibition (TGI) in the test on SK-MEL-5 melanoma, in the test on A549 NSCLC, in the test with OVCAR-8 ovarian, in the test on SF-539 CNS, with SNB-19 CNS and in the test with HCT-15 colon was more than 100 µM each time.

As to `O=C1C(C(Nc2ccccc2)c2ccccc2)=C([O-])c2ccccc21.O=C1C(C(Nc2ccccc2)c2ccccc2)=C([O-])c2ccccc21.[Cu+2]` (configuration not stated), the GI50 in the test with SK-MEL-5 melanoma was 7.54 µM; with A549 NSCLC it was 27.2 µM; in the test with OVCAR-8 ovarian it was 41.9 µM; in the test on SF-539 CNS, 30.6 µM; in the test with SNB-19 CNS, more than 100 µM; in the test with HCT-15 colon it was 52.4 µM. For the same compound, the TGI in the test with SK-MEL-5 melanoma, with A549 NSCLC, with OVCAR-8 ovarian, in the test on SF-539 CNS, in the test on SNB-19 CNS and with HCT-15 colon was more than 100 µM throughout.

On to `Cc1cc(Nc2ccc(C)c(Cl)c2)n2nc(C(F)(F)F)nc2n1`, for which the GI50 in the test with SK-MEL-5 melanoma was 14.3 µM; with BT-549 breast it was 22.9 µM; with OVCAR-8 ovarian, 29.3 µM; in the test with SF-539 CNS, 19.1 µM; in the test on SNB-19 CNS it was 29.4 µM; in the test with PC-3 prostate it was 22 µM. Besides, in the test with HCT-15 colon, the GI50 was 23.6 µM. Further, the total growth inhibition concentration (TGI) in the test with SK-MEL-5 melanoma is 27.9 µM; with BT-549 breast it was 57.4 µM; with OVCAR-8 ovarian, more than 100 µM; in the test with SF-539 CNS it was 39 µM; in the test with SNB-19 CNS, more than 100 µM; in the test with PC-3 prostate, more than 100 µM. In the test on HCT-15 colon, the concentration for total growth inhibition (TGI) was more than 100 µM.

Turning to `CC#Cc1ccc(-c2ccccc2)s1`, the TGI in the test on SK-MEL-5 melanoma, with A549 NSCLC, in the test on OVCAR-8 ovarian, with SF-539 CNS, with SNB-19 CNS and in the test on PC-3 prostate was more than 100 µM throughout. For the same compound, the total growth inhibition concentration (TGI) in the test with HCT-15 colon was more than 100 µM.

Turning to `COC1=CC(=O)C(C2(OC(C)C)OC(=O)C(Cl)=C2Cl)=CC1=O` (configuration not stated), the TGI is more than 100 µM in the test on SK-MEL-5 melanoma; more than 100 µM in the test with A549 NSCLC; 78.8 µM in the test with OVCAR-8 ovarian; more than 100 µM with SF-539 CNS; more than 100 µM with SNB-19 CNS; more than 100 µM in the test with PC-3 prostate. In the test on HCT-15 colon, the TGI was more than 100 µM.

Turning to `C#Cc1cccc(Nc2nc3cc([N+](=O)[O-])ccc3nc2Nc2ccc(O)cc2)c1`, the GI50 is 1.79 µM with SK-MEL-5 melanoma; 1.71 µM in the test on BT-549 breast; 2.17 µM with A549 NSCLC; 2.33 µM in the test with OVCAR-8 ovarian; 1.75 µM with SF-539 CNS; 1.78 µM in the test on SNB-19 CNS. In addition, the GI50 in the test on PC-3 prostate is 1.65 µM. For the same compound, the concentration for total growth inhibition (TGI) in the test on SK-MEL-5 melanoma was found to be 3.23 µM; in the test with BT-549 breast, 3.7 µM; in the test with A549 NSCLC it was 4.78 µM; with OVCAR-8 ovarian it was 6.48 µM; in the test with SF-539 CNS, 3.29 µM; in the test with SNB-19 CNS, 3.19 µM. The total growth inhibition concentration (TGI) with PC-3 prostate came out at 3.91 µM.

On to `CC(C)(C)[Si](C)(C)OC1[C@@H](O[Si](C)(C)C(C)(C)C)[C@@H](CNC(=O)NC(=O)C(F)(F)F)O[C@H]1n1cnc2c(NC(=O)Nc3ccccc3)ncnc21` (some centres not stated), for which the GI50 with SK-MEL-5 melanoma was 2.72 µM; with BT-549 breast, 6.81 µM; in the test on A549 NSCLC, 4.5 µM; in the test on OVCAR-8 ovarian, 7.76 µM; in the test with SF-539 CNS, 6.74 µM; with PC-3 prostate, 1.82 µM. Moreover, the GI50 in the test with HCT-15 colon was 2.94 µM. For the same compound, the total growth inhibition concentration (TGI) with SK-MEL-5 melanoma is 9.18 µM; in the test on BT-549 breast, 13.4 µM; with A549 NSCLC, 12.4 µM; with OVCAR-8 ovarian, 16.7 µM; in the test with SF-539 CNS, 13.2 µM; in the test on PC-3 prostate, 7.91 µM. In the test on HCT-15 colon, this compound came in with a TGI of 9.12 µM.

For the compound `Cc1ccc(-c2nc(N3CCNCC3)c3oc(-c4ccc(C)cc4)nc3n2)cc1`, the GI50 with SK-MEL-5 melanoma is more than 39.2 µM; in the test on BT-549 breast it was 5.39 µM; with A549 NSCLC, 3.35 µM; in the test with OVCAR-8 ovarian, 2.13 µM; in the test with SNB-19 CNS, 2.6 µM; in the test with PC-3 prostate, 1.77 µM. The GI50 with HCT-15 colon is 1.72 µM. For the same compound, the TGI in the test with SK-MEL-5 melanoma was more than 53.9 µM; with BT-549 breast it was 11.2 µM; in the test on A549 NSCLC, 12.4 µM; in the test on OVCAR-8 ovarian it was 4.63 µM; in the test with SNB-19 CNS, 7.02 µM; in the test with PC-3 prostate, 3.43 µM. This compound showed a TGI in the test with HCT-15 colon of 3.28 µM.

Consider `NC(N)=NS(=O)(=O)c1ccc(N=Nc2c(O)c(C(=O)O)cc3ccccc23)cc1`, for which the TGI in the test with SK-MEL-5 melanoma, in the test with BT-549 breast, in the test with A549 NSCLC, in the test on OVCAR-8 ovarian, in the test on SF-539 CNS and in the test with PC-3 prostate was more than 100 µM throughout. This compound had a TGI in the test with HCT-15 colon of more than 100 µM.
